Reference: patent US11298314B2, “Injectable composition for localized fat reduction without pain, edema, and side effects, and method for preparing same” (AMI PHARM CO., LTD., priority 2017, dated 2022)
“Also recorded” adds a separate entry of the source. Read-outs that look alike come from different tables or passages of the source.

How the values were obtained:
[1] = test system: paw of the rats; experiment: Rat paw edema; assay type: in vivo, Sprague Dawley rats; details: for degree of edema, 1 hour after administration / degree of edema, 2 hours after administration / degree of edema, Immediately after administration: 0.1 ml into rat paw, swelling vs before injection; for degree of edema in words: 2 hours after administration, rat paw
Outline: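 Male Sprague Dawley rats (6 weeks old, 170–200 g) received 0.1 ml of PBS or test composition into the paw. Paw thickness measured by caliper before, immediately after, and 1 or 2 h post-injection; edema graded 0–4, with injection-site skin lesions photographed.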

[2] = test system: sole of the rat paws; experiment: Measurement of skin lesion (erythema) on rat paw; assay type: in vivo, Sprague Dawley rats;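 note: grades − to ++++ mean no to extremely severe erythema versus before injection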
Outline: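 Male Sprague Dawley rats (6 weeks, 170–200 g) received 0.1 ml test composition or PBS injected into the paw. Paw thickness measured by caliper before, immediately after, and 1 or 2 h post-injection; sole lesions photographed and graded 0–4.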

[3] = test system: tissues of the injected area (rat paw); experiment: H&E staining histological test (inflammation) of injected rat paw; assay type: in vivo, Sprague Dawley rats; details: for Inflammation reaction: GCA 0.0, H&E of injected rat paw; for degree of inflammation (H&E) in words: rats sacrificed at 3 hours, injected paw
Protocol: The tissues of the injected area were dissected, fixed with 10% formalin, and then the specimen was prepared and images were captured using an optical microscope. The degree of inflammation was evaluated as follows.

[4] = test system: Caspase 3 in 3T3-L1 adipocytes; experiment: Caspase 3 activity assay; assay type: cell-based; details: 0-48 hours; listed as PPC single composition
Protocol: The Caspase 3 activity assay was performed with the test materials to determine whether the cell death in the result of MTT assay was due to necrosis or apoptosis. The Caspase 3 specifically increases when apoptosis occurs and is a marker of apoptosis. […] The cells were then treated with 50 ul of cell lysis buffer (10 mM Tris-HCl, 10 mM NaH2PO4/NaHPO4, pH 7.5, 130 mM NaCl, 1% Triton X-100 and 10 mM sodium pyrophosphate) and left at 4° C. for […]. The supernatant was collected by centrifugation at 1000× rpm for 1 minute, and protein quantification was performed by BCA method. The 50 μl of reaction buffer (4 mM HEPES, pH 7.5, 10% glycerol, 2 mM dithiothreitol) and 0.5 μl of 4 mM DEVD-p-NA were added to each sample and reacted at 37° C. for 1 hour. Then wavelength was measured with a […] at 405 nm.

[5] = test system: 3T3-L1 adipocytes; experiment: Lipolysis assay (glycerol release); assay type: cell-based; details: 48 hours; listed as PPC single
Protocol: The glycerol activity assay was performed with the test materials to determine whether the cell death in the MTT assay was due to necrosis or lipolysis. Glycerol is a specific marker that increases when fat breaks down. Abcam Lipolysis Assay Kit (Colorimetric) was used according to the manufacturer's manual, and the method of the test was as follows: […] And then the lysis was induced. […] After adding the glycerol assay complex (50 μl) thereto, the solution was incubated at room temperature for 30 minutes. Absorbance was measured at OD 570 (using standard curve for absolute determination).

[6] = test system: mouse paw; experiment: In vivo pain: moving distance and moving speed after paw injection; details: 100 ul into paw, 2 hours after administration, 5 minutes; listed as PPC 5.0%
Protocol: Specifically, 100 μl of each test material was injected into the floor of the paws of the rats, and edema was observed. […] The movement before and after injection of the test material was compared through distance and time. The movement before and after injection was measured using Noldus Video Traking system and compared with moving distance (FIG. 13A) and moving speed (FIG. 13B).
After the edema was confirmed to be the most at 2 hours after administration, the moving distance (cm) and the moving speed (cm/s) for 5 minutes were compared using Noldus Video Traking system.

[7] = test system: inguinal fat pad; details: 0.2 ml s.c. once into inguinal fat pad, 8 days post-injection
[8] = Formulation stability of PPC injectable preparations: property, transparency, particle size, pH
[9] = PPC single composition 1.25% (w/v)
[10] = PPC single composition 2.50% (w/v)
[11] = PPC single composition 5.00% (w/v)
[12] = PPC single composition 7.50% (w/v)
[13] = PPC single composition 10.0% (w/v)
[14] = PPC single composition 12.5% (w/v)
[15] = PPC single composition 15.0% (w/v)

For “1,2-diacyl-sn-glycero-3-phosphocholine [PPC]”, the “degree of edema, 1 hour after administration” value (from here on “degree of edema, 1 hour”) ([1]; listed as PPC 1.25%) was “+ (mild edema [+, (the degree of swelling was 1-20% compared to before the injection)])”, the “degree of edema, 2 hours after administration” value (from here on “degree of edema, 2 hours”) ([1]; listed as PPC 1.25%) was “+ (mild edema [+, (the degree of swelling was 1-20% compared to before the injection)])” and the “degree of edema, Immediately after administration” value (shortened to “degree of edema, Immediately”) ([1]; listed as PPC 1.25%) was “+ (mild edema [+, (the degree of swelling was 1-20% compared to before the injection)])”. For the same substance, the “degree of edema, 1 hour” value ([1]; listed as PPC 2.50%) was “+ (mild edema [+, (the degree of swelling was 1-20% compared to before the injection)])”, the “degree of edema, 2 hours” value ([1]; listed as PPC 2.50%) was “+ (mild edema [+, (the degree of swelling was 1-20% compared to before the injection)])” and the “degree of edema, Immediately” value ([1]; listed as PPC 2.50%) was “+ (mild edema [+, (the degree of swelling was 1-20% compared to before the injection)])”. The “degree of edema, 1 hour” value ([1]; listed as PPC 5.00%) was “+ (mild edema [+, (the degree of swelling was 1-20% compared to before the injection)])”, the “degree of edema, 2 hours” value ([1]; listed as PPC 5.00%) was “+ (mild edema [+, (the degree of swelling was 1-20% compared to before the injection)])” and the “degree of edema, Immediately” value ([1]; listed as PPC 5.00%) was “+ (mild edema [+, (the degree of swelling was 1-20% compared to before the injection)])”. For the same substance, the “degree of edema, 1 hour” value ([1]; listed as PPC 7.50%) was “+ (mild edema [+, (the degree of swelling was 1-20% compared to before the injection)])”, the “degree of edema, 2 hours” value ([1]; listed as PPC 7.50%) was “+ (mild edema [+, (the degree of swelling was 1-20% compared to before the injection)])” and the “degree of edema, Immediately” value ([1]; listed as PPC 7.50%) was “++ (moderate edema [++, (the degree of swelling was 20-40% compared to before the injection)])”. For the same substance, the “degree of edema, 1 hour” value ([1]; listed as PPC 10.0%) was “+ (mild edema [+, (the degree of swelling was 1-20% compared to before the injection)])”, the “degree of edema, 2 hours” value ([1]; listed as PPC 10.0%) was “+ (mild edema [+, (the degree of swelling was 1-20% compared to before the injection)])” and the “degree of edema, Immediately” value ([1]; listed as PPC 10.0%) was “++ (moderate edema [++, (the degree of swelling was 20-40% compared to before the injection)])”. The “degree of edema, 1 hour” value ([1]; listed as PPC 12.5%) was “++ (moderate edema [++, (the degree of swelling was 20-40% compared to before the injection)])”, the “degree of edema, 2 hours” value ([1]; listed as PPC 12.5%) was “++ (moderate edema [++, (the degree of swelling was 20-40% compared to before the injection)])” and the “degree of edema, Immediately” value ([1]; listed as PPC 12.5%) was “++ (moderate edema [++, (the degree of swelling was 20-40% compared to before the injection)])”. For the same substance, the “degree of edema, 1 hour” value ([1]; listed as PPC 15.0%) was “++ (moderate edema [++, (the degree of swelling was 20-40% compared to before the injection)])”, the “degree of edema, 2 hours” value ([1]; listed as PPC 15.0%) was “++ (moderate edema [++, (the degree of swelling was 20-40% compared to before the injection)])” and the “degree of edema, Immediately” value ([1]; listed as PPC 15.0%) was “+++ (severe edema [+++, (the degree of swelling was 40-60% compared to before the injection)])”. The “degree of edema in words” value ([1]; listed as PPC 12.5%) was “moderate”, the “degree of edema in words” value ([1]; listed as PPC 15.0%) was “moderate” and the “grade of skin lesion (erythema), 1 hour after administration” value (“grade of skin lesion (erythema), 1 hour” below) [2, 9] was “−”. For the same substance, the “grade of skin lesion (erythema), 2 hours after administration” value (“grade of skin lesion (erythema), 2 hours” for short) [2, 9] was “−”, the “grade of skin lesion (erythema), Immediately after administration” value (shortened to “grade … Immediately after administration”) [2, 9] was “−” and the “grade of skin lesion (erythema), 1 hour” value [2, 10] was “−”. For the same substance, the “grade of skin lesion (erythema), 2 hours” value [2, 10] was “−”, the “grade … Immediately after administration” value [2, 10] was “−” and the “grade of skin lesion (erythema), 1 hour” value [2, 11] was “−”. The “grade of skin lesion (erythema), 2 hours” value [2, 11] was “−”, the “grade … Immediately after administration” value [2, 11] was “−” and the “grade of skin lesion (erythema), 1 hour” value [2, 12] was “−”. For the same substance, the “grade of skin lesion (erythema), 2 hours” value [2, 12] was “−”, the “grade … Immediately after administration” value [2, 12] was “−” and the “grade of skin lesion (erythema), 1 hour” value [2, 13] was “−”. For the same substance, the “grade of skin lesion (erythema), 2 hours” value [2, 13] was “−”, the “grade … Immediately after administration” value [2, 13] was “−” and the “grade of skin lesion (erythema), 1 hour” value [2, 14] was “−”. The “grade of skin lesion (erythema), 2 hours” value [2, 14] was “−”, the “grade … Immediately after administration” value [2, 14] was “−” and the “grade of skin lesion (erythema), 1 hour” value [2, 15] was “−”. For the same substance, the “grade of skin lesion (erythema), 2 hours” value [2, 15] was “−”, the “grade … Immediately after administration” value [2, 15] was “−” and the Inflammation reaction [3, 10] was “−”. The Inflammation reaction [3, 11] was “−”, the Inflammation reaction [3, 12] was “−” and the Inflammation reaction [3, 13] was “+”. The Inflammation reaction [3, 14] was “+”, the Inflammation reaction [3, 15] was “++” and the “degree of inflammation (H&E) in words” value ([3]; listed as PPC 10.0%) was “Mild”. The “degree of inflammation (H&E) in words” value ([3]; listed as PPC 12.5%) was “Mild”, the “degree of inflammation (H&E) in words” value ([3]; listed as PPC 15.0%) was “moderate” and the caspase-3 activity [4] was “time-dependent effect of inducing caspase-3 activity to a considerable level; also recorded: time-dependent effect of inducing caspase-3 activity to a considerable extent”. The “glycerol release / cytolytic activity” value [5] was “slightly higher cytolytic activity than at 24 hours; also recorded: slightly higher cytolytic activity than that of 24 hours”, the “change of moving distance and moving speed” value [6] was “not changed or slightly increased; also recorded: wasn't changed or was slightly increased” and the “inflammation at the site of administration, dermal and epidermal tissues” value [7] was “no inflammatory cells such as neutrophils”. For the same substance, the “histological change of adipocytes in fat tissue” value (“histological change” below) ([7]; listed as PPC 5.0%) was “size of adipocytes was reduced”, the “histological change” value ([7]; listed as PPC 15.0%) was “development of macrophages was confirmed around adipocytes” and the “histological change” value ([7]; listed as PPC single composition) was “adipocyte apoptosis and degradation were induced in a concentration-dependent manner”. For the same substance, the “formulation stability / property in words” value [8] was “poor formulation stability”.
